Reference: the supplement of paper PMC10627819

How the values were obtained:
S. aureus Newman = experiment: Bliss interaction score (quartile over a dose matrix) (fitness difference); higher = more antagonism (negative = synergy)
Summary of the method: (§1)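 Fitness here means normalised growth, inferred for single drugs from the combination data. Growth was OD595 at entry into stationary phase, divided by the plate's robust no-drug mean and capped at 1. The Bliss score is observed minus expected fitness, with the expectation being the product, and its quartiles span technical, biological and donor/recipient replicates.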

B. subtilis 168 [1] = experiment: as above
Summary of the method: as §1

S. pneumoniae D39V [2] = experiment: as above
Summary of the method: as §1

S. aureus DSM 20231 = experiment: as above
Summary of the method: as §1

B. subtilis 168 [3] = experiment: fitness (endpoint OD595 vs no drug) (fraction); higher = more growth
Summary of the method: (§2)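 With the first reading as background, OD595 was measured every 30 min for 14 h in 384-well plates kept at 37 °C and inoculated at OD595 0.01. TSB, LB Lennox or CY was the medium. Fitness is the optical density at the transition into stationary phase divided by the robust mean of no-drug control wells, with a cap of 1.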

S. pneumoniae D39V [4] = experiment: as above
Summary of the method: as §2
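For Bliss interaction score (quartile over a dose matrix) in this document: first quartile when negative (synergy) and third quartile when positive (antagonism).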
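For fitness (endpoint OD595 vs no drug) in this document: OD595 on entry to stationary phase over no-drug wells; at most 1.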

CCC[C@@H]1C[C@@H](C(=O)N[C@@H]([C@H]2O[C@H](SC)[C@H](O)[C@@H](O)[C@H]2O)[C@H](C)Cl)N(C)C1 [Clindamycin] + C[C@H]1COc2c(N3CCN(C)CC3)c(F)cc3c(=O)c(C(=O)O)cn1c23 [Levofloxacin]
Settings | Bliss interaction score
B. subtilis 168 [1] | 0.0326
S. aureus DSM 20231 | 0.0785
S. aureus Newman | 0.0891
S. pneumoniae D39V [2] | 0.0885

fitness, B. subtilis 168 [3], one replicate
Settings | first compound 0.0039 µg/mL | first compound 0.0078 µg/mL | first compound 0.0156 µg/mL | first compound 0.0625 µg/mL | first compound 0.125 µg/mL | first compound 0.25 µg/mL
partner 0.001 µg/mL | – | – | – | 0.715 | 0.554 | 0.391
partner 0.002 µg/mL | 0.97 | 0.86 | 0.833 | 0.558 | 0.442 | 0.338
partner 0.0039 µg/mL | 0.968 | 0.872 | 0.816 | 0.648 | 0.511 | 0.389
partner 0.0078 µg/mL | 0.967 | 0.854 | 0.815 | – | – | –

Settings | fitness
B. subtilis 168 [3], first compound 0.0625 µg/mL, partner 0.0312 µg/mL | 0.041
B. subtilis 168 [3], first compound 0.0625 µg/mL, partner 0.0625 µg/mL | 0.038
B. subtilis 168 [3], first compound 0.0625 µg/mL, partner 0.125 µg/mL | 0.0416
B. subtilis 168 [3], first compound 0.125 µg/mL, partner 0.0312 µg/mL | 0.0414
B. subtilis 168 [3], first compound 0.125 µg/mL, partner 0.0625 µg/mL | 0.0486
B. subtilis 168 [3], first compound 0.125 µg/mL, partner 0.125 µg/mL | 0.0468
B. subtilis 168 [3], first compound 0.25 µg/mL, partner 0.0312 µg/mL | 0.0473
B. subtilis 168 [3], first compound 0.25 µg/mL, partner 0.0625 µg/mL | 0.0532
B. subtilis 168 [3], first compound 0.25 µg/mL, partner 0.125 µg/mL | 0.0518
S. pneumoniae D39V [4], first compound 0.0125 µg/mL, partner 0.2 µg/mL | 0.759
S. pneumoniae D39V [4], first compound 0.0125 µg/mL, partner 0.4 µg/mL | 0.736
S. pneumoniae D39V [4], first compound 0.0125 µg/mL, partner 0.8 µg/mL | 0.605
S. pneumoniae D39V [4], first compound 0.015 µg/mL, partner 0.1725 µg/mL | 0.909
S. pneumoniae D39V [4], first compound 0.015 µg/mL, partner 0.345 µg/mL | 0.865
S. pneumoniae D39V [4], first compound 0.015 µg/mL, partner 0.69 µg/mL | 0.595
S. pneumoniae D39V [4], first compound 0.025 µg/mL, partner 0.2 µg/mL | 0.478
S. pneumoniae D39V [4], first compound 0.025 µg/mL, partner 0.4 µg/mL | 0.47
S. pneumoniae D39V [4], first compound 0.025 µg/mL, partner 0.8 µg/mL | 0.39
S. pneumoniae D39V [4], first compound 0.03 µg/mL, partner 0.1725 µg/mL | 0.822
S. pneumoniae D39V [4], first compound 0.03 µg/mL, partner 0.345 µg/mL | 0.759
S. pneumoniae D39V [4], first compound 0.03 µg/mL, partner 0.69 µg/mL | 0.546
S. pneumoniae D39V [4], first compound 0.05 µg/mL, partner 0.2 µg/mL | 0.235
S. pneumoniae D39V [4], first compound 0.05 µg/mL, partner 0.4 µg/mL | 0.189
S. pneumoniae D39V [4], first compound 0.05 µg/mL, partner 0.8 µg/mL | 0.15
S. pneumoniae D39V [4], first compound 0.06 µg/mL, partner 0.1725 µg/mL | 0.631
S. pneumoniae D39V [4], first compound 0.06 µg/mL, partner 0.345 µg/mL | 0.601
S. pneumoniae D39V [4], first compound 0.06 µg/mL, partner 0.69 µg/mL | 0.399

O=C(O[C@@H]1Cc2c(O)cc(O)cc2O[C@@H]1c1cc(O)c(O)c(O)c1)c1cc(O)c(O)c(O)c1 [EGCG] + CO[C@@H]1[C@@H](OC(N)=O)[C@@H](O)[C@H](Oc2ccc3c(O)c(NC(=O)c4ccc(O)c(CC=C(C)C)c4)c(=O)oc3c2C)OC1(C)C [Novobiocin]
Settings | Bliss interaction score
B. subtilis 168 [1] | -0.0765
S. aureus DSM 20231 | 0.0574
S. aureus Newman | 0.074
S. pneumoniae D39V [2] | -0.0624

fitness, B. subtilis 168 [3]
Settings | first compound 6.25 µg/mL | first compound 12.5 µg/mL | first compound 25 µg/mL
partner 0.0125 µg/mL | 0.968 | 0.643 | 0.253
partner 0.025 µg/mL | 0.93 | 0.568 | 0.234
partner 0.05 µg/mL | 0.9 | – | 0.29

fitness, B. subtilis 168 [3], one replicate
Settings | partner 0.1 µg/mL | partner 0.125 µg/mL | partner 0.2 µg/mL | partner 0.25 µg/mL | partner 0.5 µg/mL
first compound 6.25 µg/mL | 0.949 | 0.92 | 0.896 | 0.875 | 0.563
first compound 12.5 µg/mL | 0.756 | 0.69 | 0.759 | 0.522 | 0.194
first compound 25 µg/mL | 0.546 | 0.213 | 0.541 | 0.223 | 0.207
